Measurements as given in patent US20130011376A1, “Methods for Enhancing Natural Killer Cell Proliferation and Activity” (GAMIDA CELL LTD., priority 2009, published 2013).

Columns and labels:
Assay type in all cases: cell-based, human
[1] = system: peripheral blood NK (T-cell depleted) cells; experiment: Expansion of CD3+ or CD3+/CD19+ depleted peripheral blood NK cells in culture bags
Method: For depletion procedure, total nuclear cells from umbilical cord blood (CB), bone marrow (BM) or peripheral blood (PB) cells were layered on a Ficoll-Hypaque gradient (1.077 g/mL; Sigma), and centrifuged at 800×g for 30 minutes for separation of the mononuclear cells. The cells in the interface layer were collected and washed three times in phosphate-buffered saline (PBS) (Biological Industries, Israel) containing 0.5% HSA. Optionally, cells are not separated on the Ficoll-Hypaque gradient but washed three times in phosphate-buffered saline (PBS) (Biological Industries) containing 0.5% HSA (“total mononuclear fraction”). CD3 cells were depleted using the CD3 cell isolation kit (Miltenyi Biotec Bergisch, Gladbach, Germany) and the entire CD3 negative cell fraction was cultured. Optionally, CD19 cells were also depleted using the CD19 cell isolation kit (Miltenyi Biotec Bergisch, Gladbach, Germany) and the CD3/CD19 negative (CD3/CD19 depleted) cell fraction was cultured. Optionally, RosetteSep Human CD3+ Cell Depletion Cocktail (Stem Cell Technologies, RosestteSep, Cat. No. 15661)] was used for CD3 depletion and the entire CD3 negative cell fraction was cultured. After negative depletion the cells were counted and characterized by FACS analysis.
3. CD3+ depleted, or CD3+/CD19+ depleted mononuclear cell fraction from PB, BM and CB were cultured in culture bags, T-Flasks or 24 well plates at a concentration of 1−1000×10^4 cells/ml in MEMα/10% FCS or CellGro SCGM (Cell Genix)/5% Human Serum/LiforCell® FBS Replacement (Lifeblood Products) containing the following human recombinant cytokines: interleukin-2 (IL-2) or and interleukin-15 (IL-15), with or without FLT-3 or SCF or FLT3 and SCF (5-50 ng/ml) (Perpo Tech, Inc., Rocky Hill, N.J., USA), all combinations, with or without nicotinamide and incubated at 37° C. in a humidified atmosphere of 5% CO2 in air. The cultures were topped weekly or twice a week with the same volume of fresh medium containing growth factors with or without nicotinamide. Cultures were later supplemented once or several times a week with IL-2 and or IL-2 and IL-15. To estimate number of cells in culture, cell samples were counted following staining with trypan blue. At various time points, samples are taken to FACS analysis to assay the relative fractions of NK cells, CD56+CD3−, CD56+CD3+, CD34+CD56+, CD56+CD16+ and/or CD56+ NKG2A cells.
In order to calculate the number of NK cells on day 0, the total number of cells seeded on day 0 was multiplied by the percent of CD56+/CD3− cells measured by the FACS on day 0.
To determine total number of cells on day 7, 14 and 21, the cell count/ml was multiplied by the volume of the culture medium. In order to determine the number of NK cells in culture, the total number of cells in culture was multiplied by the percent of CD56+/CD3− cells measured with the FACS on days 7, 14 or 21. To measure fold expansion, total number of NK cells on days 7, 14 and 21 was divided by total number of NK cells seeded in culture on day-0.

[2] = system: cord-blood derived CD56+ cells; experiment: Transwell chemotaxis (migration) assay
Method: Chemotaxis (“migration”) assay: Migration response (chemotaxis) of human NK cells was assayed by Transwell migration assay (Costar, Cambridge, Mass.; 6.5-mm diameter, 5-μm pore size). Briefly, 100 μL chemotaxis buffer (RPMI 1640, 1% FCS) containing 2×10^5 NK cells was added to the upper chamber, and 0.5 mL chemotaxis buffer with or without 250 ng/ml stromal-derived factor CXCL12 (“SDF-1”) (R&D Systems) was added to the bottom chamber. Cells migrating within 4 hours to the bottom chamber of the “transwell” were counted for 60 seconds using FACScalibur (Becton Dickinson Immunocytometry Systems).

[3] = system: T-cell depleted (CD3 or CD3/CD19 depleted) peripheral blood NK cell populations; experiment: CD62L expression on T-cell depleted peripheral blood NK cell cultures (FACS); details: 2.5 and 5.0 mM nicotinamide, after 7, 14 and 21 days in culture
Method: For depletion procedure, total nuclear cells from umbilical cord blood (CB), bone marrow (BM) or peripheral blood (PB) cells were layered on a Ficoll-Hypaque gradient (1.077 g/mL; Sigma), and centrifuged at 800×g for 30 minutes for separation of the mononuclear cells. The cells in the interface layer were collected and washed three times in phosphate-buffered saline (PBS) (Biological Industries, Israel) containing 0.5% HSA. Optionally, cells are not separated on the Ficoll-Hypaque gradient but washed three times in phosphate-buffered saline (PBS) (Biological Industries) containing 0.5% HSA (“total mononuclear fraction”). […] After negative depletion the cells were counted and characterized by FACS analysis.
3. […] To estimate number of cells in culture, cell samples were counted following staining with trypan blue. […]
(§1) The cells were washed with a PBS solution containing 1% BSA, and stained (at 4° C. for 30 min) with fluorescein isothiocyanate (FITC)- or phycoerythrin (PE)-conjugated antibodies or allophycocyanin (APC). The cells were then washed in the above buffer and analyzed using a FACScalibur® flow cytometer (Becton Dickinson, San Jose, Calif., USA). […] Emission of 10^4 cells was measured using logarithmic amplification, and analyzed using the CellQuest software (Becton Dickinson). […]

[4] = system: peripheral blood CD56+ NK cells; experiment: CXCR4 and CD62L expression on NK cells co-cultured with irradiated mononuclear cells; details: co-culture with irradiated mononuclear cells, nicotinamide 2.5 and 5 mM
Source text: NK cell cells from total mononuclear cell fraction, purified CD56+ or CD56+CD3− cells from total nuclear or mononuclear cells or from the fraction depleted from CD34+ or CD133+ cells, or CD3+ depleted, or CD3+/CD19+ depleted mononuclear cell fraction from PB, BM and CB can be cultured with irradiated stroma. For the preparation of irradiated stroma (feeder cells), mononuclear cells were irradiated with 3000 rad. After CD56 or CD56+CD3− selection or CD3 depletion the cells were counted and characterized by FACS analysis as described hereinabove. Cells were cultured as described hereinabove, with and without nicotinamide, with and without irradiated stroma at a concentration of irradiated cells of 20×10^5 cells/ml.
as §1, with “Dickinson). Cells stained with FITC, PE and APC-conjugated isotype control antibodies were used to determine background fluorescence.” for “Dickinson).”

NC(=O)c1cccnc1 [nicotinamide]
NK expansion relative to control cultures without nicotinamide ([1]; 2.5 mM and 5 mM nicotinamide, after 14 and 21 days, IL-2 or IL-2+IL-15): significantly higher
CD56+CD3- NK cell proliferation ([1]; 2.5 mM and 5 mM, 21 days, seeding 2-, 5-, and 10x10^5 cells): profound enhancement
NK (CD56+CD3-) cells among cells in culture ([1]; 2-3 weeks in culture with nicotinamide, seeded 2-10% NK cells): more than 90%
non-NK cell fraction vs control cultures ([1]; 2.5 and 5 mM nicotinamide, 21 days post seeding): smaller
NK cell proliferation from day 14 to day 21 ([1]; grown with nicotinamide): continue to proliferate
migration in response to SDF stimulus ([2]; cells cultured with 2.5 or 5 mM nicotinamide, 250 ng/ml SDF): greatly enhanced
motility in the absence of SDF stimulus ([2]; nicotinamide-cultured CD56+ cells, no SDF): enhanced motility
CD62L-positive cells among the NK cells [3]: increased percentage
expression of surface marker CD62L [4]: marked increase
expression of surface marker CXCR4 [4]: marked increase
